Data on 5 substances can be found in patent publication US12103969B2, “Anti-Siglec antibody, pharmaceutical composition comprising the same, and uses thereof” (Academia Sinica, priority 2018, dated 2024).

Like-named read-outs stand apart in the source and are kept apart here.

Assay [1] deals with hHBV. Briefly: Bio-layer interferometry: immobilized Fc-lectin and hHBV. The assay is classed as binding, hepatitis B virus. The source says:
(§1) HBV was purified from blood samples of chronic hepatitis B (CHB) patients and HBV-transgenic mice, respectively. The protocol for HBV was purified by conventional method. HBV viral load was determinate by RT-PCR according to a standard HBV plasmid. HBsAg level was quantified by the HBsAg ELISA kit.
(§2) Sialidase S and sialidase C were used to remove sialoglycan from HBV or sialoglycans, respectively. Sialidase S releases only α(2-3)-linked Neu5Ac, while Sialidase C release both α(2-3) and α(2-6)-linked Neu5Ac. The sialidase-treated substrates were used for HBV-Siglec-3 binding assay and competition assay.
(§3) The interaction between human Siglec.Fc fusion protein and HBV was determined by the Bio-layer interferometry. In brief, the biosensor was immobilized with the Siglec.Fc fusion protein, and the binding between the Siglec.Fc and HBV was performed with running buffer (10 mM Tris HCl, 150 mM NaCl, 2 mM CaCl2, 2 mM MgCl2, pH 7.4) at room temperature. The valence between HBV and human Siglec-3 was determined, which correlates the strength of multivalent association with that of monovalent association as shown in the following: • KA, surf=F (S×10^−2)^n−1×(KA, mono)^n, where KA, surf is thereciprocal of KD (HBV and Siglec-3), KA, mono is the reciprocal of KD (Biantennary a2-6 linked sialylglycopeptide and Siglec-3); n is the number of valency number; F is the statistic factor in the system and S is equal to 40(Å), which is estimated according to crystal structure of Siglec-3 published on RCSB protein data bank (Number: 5J0B). Three individual BLI results were used to calculate out the n (number of valency). Generation and Characterization of Anti-Siglec mAbs and Selection of Antagonistic Antibody

Assay [2] relates to hHBV. Kind of assay: Immunoprecipitation of hHBV by Siglec ECD.Fc fusion proteins. The assay is classed as binding, hepatitis B virus. The following applies: Western blot with anti-HBs. How it is done: HBV ([…]) was incubated with recombinant Siglec-3/-7/-9 ECD.Fc fusion proteins, respectively, for 16 hours at 4° C., followed by incubation with Sepharose-conjugated Protein A beads for immunoprecipitation. The samples were fractionated on 12% SDS-PAGE before blotting to PVDF membrane and incubated in blocking buffer (0.05% Tween 20 in TBS containing 5% BSA) at 4° C. overnight. Blots were incubated with […] polyclonal goat-anti-HBs Ab for 1 hour at room temperature, followed by incubation with Streptavidin-HRP (1:10000 dilution) for another 1 hour at room temperature, and were visualized by ECL.
(In general: In western blotting, separated proteins are transferred to a membrane and probed.)

In assay [3] the target is T1, hHBV and Siglec-3 interaction (Homo sapiens, UniProt P20138).
T1 construct: human Siglec-3/-7 extracellular domain (ECD); made in house; host or cells: FreeStyle 293 Expression System (Invitrogen); HBsAg/HBV purified from CHB patients' blood
Briefly: Competition assay of hHBV and Siglec-3 interaction by sialoglycan. Format: binding. As for the experimental part: as §2
Siglec ECD.Fc fusion proteins (5 μg) were coated on microtitre plates, followed by addition of HBsAg (100 ng) in the presence various concentrations of following glycans: Neu5Ac(α2-6)-Gal-GlcNAc, Neu5Ac(α2-3)-Gal-GlcNAc, and Gal-GlcNAc at 4° C. for 12 hours with Protein free blocking buffer. The sialidase-treated and un-treated sialyglycans were used for competition assay.

Assay [4] addresses T2, Siglec-3.Fc (Homo sapiens, UniProt P20138).
T2 construct: human Siglec-3/-7 extracellular domain (ECD); made in house; host or cells: FreeStyle 293 Expression System (Invitrogen)
Briefly: Bio-layer interferometry: Siglec-3.Fc and Neu5Ac(α2-6)GalGlcNAc glycans. Format: binding. How it is done: as §3

The subject of assay [5] is mHBV. Briefly: Bio-layer interferometry: immobilized Fc-lectin and mHBV. The assay is classed as binding, hepatitis B virus. The settings on record: BLI, same condition as hHBV. How it is done:
as §1, §3
(In general: In BLI a coated tip is dipped into the sample, and binding shifts an interference pattern.)

The mark [6] stands for this setting: untreated glycan, various concentrations.

T2 sequence (P20138 18-259 limits assumed): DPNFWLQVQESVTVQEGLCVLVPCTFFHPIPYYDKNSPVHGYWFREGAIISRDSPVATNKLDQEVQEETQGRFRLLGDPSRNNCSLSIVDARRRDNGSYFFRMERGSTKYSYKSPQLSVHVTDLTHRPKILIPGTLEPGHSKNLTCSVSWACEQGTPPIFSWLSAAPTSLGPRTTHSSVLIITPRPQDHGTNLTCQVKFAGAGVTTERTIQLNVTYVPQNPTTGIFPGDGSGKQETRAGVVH
T1 sequence (P20138 18-259 limits assumed): as above

For “Siglec-9: recombinant Siglec-9 ECD.Fc fusion protein”, the “binding to hHBV” value in assay [1] (hHBV, BLI, same condition as Siglec-3) is on record as “did not bind”. For the same substance, in assay [2], the “pull down of hHBV HBsAg (immunoprecipitation)” value is “cannot pull down”.
As for GalGlcNAc, the “inhibition of Siglec-3-HBV interaction” value in assay [3] (setting [6]) is on record as “did not inhibit Siglec-3-HBV interaction”.
Regarding Neu5Ac(α2-6)GalGlcNAc, in assay [4] (immobilized Siglec-3, cell wraps: value is the mantissa, factor × 10^0 printed in the lines below), the “Ka” value is 5.44 M⁻¹ s⁻¹. Also, the “Kd” value in assay [4] (immobilized Siglec-3, cell wraps: value is the mantissa, factor × 10^−3 printed in the lines below) came to 6.02 s⁻¹; in assay [4] (recombinant Siglec-3.Fc (dimeric), full value, unit from Table 1, read-out: equilibrium dissociation constant (KD)) it was 1.59 mM. For the same substance, the “inhibition of Siglec-3-HBV interaction” value in assay [3] (Sialidase C-treated glycan) is “lost its inhibitory effect”; in assay [3] (setting [6]), “inhibited Siglec-3-HBV interaction in a dose-dependent manner”.
Neu5Ac(α2-3)GalGlcNAc: the “inhibition of Siglec-3-HBV interaction” value in assay [3] (setting [6]) is “did not inhibit Siglec-3-HBV interaction”.
As for “Siglec-3: recombinant human Siglec-3 extracellular domain (ECD).Fc fusion protein”, the “Ka” value in assay [1] (hHBV Sialidase S treated, cell wraps: value is the mantissa, factor × 10^5 printed in the lines below) turned out to be 7.11 M⁻¹ s⁻¹; in assay [1] (hHBV Untreat, cell wraps: value is the mantissa, factor × 10^6 printed in the lines below), 1.18 M⁻¹ s⁻¹; in assay [1] (hHBV, cell wraps: value is the mantissa, factor × 10^6 printed in the line below), 3.11 M⁻¹ s⁻¹. The “Kd” value in assay [1] (hHBV Sialidase S treated, cell wraps: value is the mantissa, factor × 10^−4 printed in the lines below) was determined as 2.73 s⁻¹; in assay [1] (hHBV Untreat, cell wraps: value is the mantissa, factor × 10^−4 printed in the lines below) it was 6.97 s⁻¹; in assay [1] (hHBV virions, full value, unit from Table 2, read-out: KD) it was 0.115 nM; in assay [1] (hHBV, cell wraps: value is the mantissa, factor × 10^−4 printed in the line below), 3.58 s⁻¹. In addition, in assay [1] (α2-6 linked Neu5Ac removed from hHBV by sialidase C), the “binding between Siglec-3 and hHBV” value is listed as “abolished the binding”. Further, in assay [5], the “binding to mHBV virions” value is given as “did not bind”. In addition, the “pull down of hHBV HBsAg (immunoprecipitation)” value in assay [2] is “mainly pulled down glycosylated small HBsAg(h)”.
